Literature values, collected in US20010028878A1, “In vitro maturation of human oocytes in one day” (priority 1998, published 2001).

Test system: human oocytes
Details: presence of insulin in the culture medium; recent research

insulin
effect on the chance for successful pregnancy: negative effect
